From US11267800B2, “Cyclohexyl acid triazole azines as LPA antagonists” (BRISTOL-MYERS SQUIBB COMPANY, priority 2017, dated 2022)

Target: T1, human LPA1 (Homo sapiens, UniProt Q92633)
T1 construct: expressed in transfected cells; host or cells: Chinese hamster ovary (CHO) cells
Test: LPA1 functional antagonist assay (calcium flux)
Type: cell-based
Settings: CHO cells overexpressing human LPA1; inhibition of calcium flux induced by 10 nM LPA; read-out: hLPA1 IC50
Procedure: The effectiveness of compounds of the present invention as LPA1 inhibitors can be determined in an LPA1 functional antagonist assay as follows:
Chinese hamster ovary cells overexpressing human LPA1 were plated overnight (15,000 cells/well) in poly-D-lysine coated 384-well microplates (Greiner bio-one, Cat #781946) in DMEM/F12 medium (Gibco, Cat #11039). Following overnight culture, cells were loaded with calcium indicator dye (AAT Bioquest Inc, Cat #34601) for 30 minutes at 37° C. The cells were then equilibrated to room temperature for 30 minutes before the assay. Test compounds solubilized in DMSO were transferred to 384 well non-binding surface plates (Corning, Cat #3575) using the Labcyte Echo acoustic dispense and diluted with assay buffer [1×HBSS with calcium/magnesium (Gibco Cat #14025-092), 20 mM HEPES (Gibco Cat #15630-080) and 0.1% fatty acid free BSA (Sigma Cat #A9205)] to a final concentration of 0.5% DMSO. Diluted compounds were added to the cells by FDSS6000 (Hamamatsu) at final concentrations ranging from 0.08 nM to 5 μM. and were then incubated for 20 min at room temperature at which time LPA (Avanti Polar Lipids Cat #857130C) was added at final concentrations of 10 nM to stimulate the cells. The compound IC50 value was defined as the concentration of test compound which inhibited 50% of the calcium flux induced by LPA alone. IC50 values were determined by fitting data to a 4-parameter logistic equation (GraphPad Prism, San Diego Calif.).

T1 sequence (Q92633 whole entry): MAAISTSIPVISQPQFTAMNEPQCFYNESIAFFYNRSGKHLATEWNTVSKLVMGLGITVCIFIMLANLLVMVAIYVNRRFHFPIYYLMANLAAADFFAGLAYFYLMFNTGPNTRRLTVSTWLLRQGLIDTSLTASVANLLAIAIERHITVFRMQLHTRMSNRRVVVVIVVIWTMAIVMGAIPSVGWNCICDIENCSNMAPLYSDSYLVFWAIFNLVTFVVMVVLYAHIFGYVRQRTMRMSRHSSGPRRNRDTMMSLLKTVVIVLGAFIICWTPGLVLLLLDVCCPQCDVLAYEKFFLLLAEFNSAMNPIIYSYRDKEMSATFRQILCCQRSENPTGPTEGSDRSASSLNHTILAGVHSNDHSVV

IC50 [nM]	SMILES
94	CCC(C)c1ncnc(NCc2c(-c3ccc(O[C@H]4CCC[C@H](C(=O)O)C4)c(C)n3)nnn2C)n1 (mixture of isomers) [Example 197, (1S,3S)-3-((6-(5-(((4-(sec-Butyl)-1,3,5-triazin-2-yl)amino)methyl)-1-methyl-1H-1,2,3-triazol-4-yl)-2-methylpyridin-3-yl)oxy)cyclohexane-1-carboxylic acid]
130	CCC(C)c1nc(O)nc(NCc2c(-c3ccc(O[C@H]4CCC[C@H](C(=O)O)C4)c(C)n3)nnn2C)n1 (mixture of isomers) [Example 198, (1S,3S)-3-((6-(5-(((4-(sec-Butyl)-6-hydroxy-1,3,5-triazin-2-yl)amino)methyl)-1-methyl-1H-1,2,3-triazol-4-yl)-2-methylpyridin-3-yl)oxy) cyclohexane-1-carboxylic acid]
41	Cc1nc(-c2nnn(C)c2COc2nccc(OC3CC3)n2)ccc1O[C@H]1CCCC(C(=O)O)C1 (mixture of isomers) [Example 251, (3S)-3-((6-(5-(((4-cyclopropoxypyrimidin-2-yl)oxy)methyl)-1-methyl-1H-1,2,3-triazol-4-yl)-2-methylpyridin-3-yl)oxy)cyclohexane-1-carboxylic acid]
67	Cc1nc(-c2nnn(C)c2COc2nccc(OC(C)C)n2)ccc1O[C@H]1CCC[C@@H](C(=O)O)C1 (single isomer, unassigned) [Example 249]
41	Cc1nc(-c2nnn(C)c2COc2nccc(OC(C)C)n2)ccc1O[C@H]1CCC[C@H](C(=O)O)C1 (single isomer, unassigned) [Example 250]
36	Cc1nc(-c2nnn(C)c2CNc2nccc(C3CC3)n2)ccc1O[C@H]1CCC[C@H](C(=O)O)C1 [Example 9]
11	Cc1nc(-c2nnn(C)c2CNc2nccc(C3CCC3)n2)ccc1O[C@H]1CCC[C@H](C(=O)O)C1 [Example 10]

Further lines, the molecule ahead of its results:

SMILES	IC50 [nM]
Cc1nc(-c2nnn(C)c2CNc2cc(-c3ccccc3)ccn2)ccc1O[C@H]1CCC[C@H](C(=O)O)C1 (stereo in doubt) [Example 2, (1S,3S)-3-((2-Methyl-6-(1-methyl-5-(((4-phenylpyridin-2-yl)amino)methyl)-1H-1,2,3-triazol-4-yl)pyridin-3-yl)oxy)cyclohexanecarboxylic acid]	32
Cc1nc(-c2nnn(C)c2CNc2nccc(C(C)(C)C)n2)ccc1O[C@H]1CCC[C@H](C(=O)O)C1 [Example 1, (1S,3S)-3-((6-(5-(((4-(tert-Butyl)pyrimidin-2-yl)amino)methyl)-1-methyl-1H-1,2,3-triazol-4-yl)-2-methylpyridin-3-yl)oxy)cyclohexanecarboxylic acid]	26
Cc1nc(-c2nnn(C)c2CNc2ncnc(-c3ccccc3)n2)ccc1O[C@H]1CCC[C@H](C(=O)O)C1 [Example 3, (1S,3S)-3-((2-Methyl-6-(1-methyl-5-(((4-phenyl-1,3,5-triazin-2-yl)amino)methyl)-1H-1,2,3-triazol-4-yl)pyridin-3-yl)oxy)cyclohexanecarboxylic acid]	120
COc1nc(NCc2c(-c3ccc(O[C@H]4CCC[C@H](C(=O)O)C4)c(C)n3)nnn2C)nc(-c2ccccc2)n1 [Example 4, (1S,3S)-3-((6-(5-(((4-Methoxy-6-phenyl-1,3,5-triazin-2-yl)amino)methyl)-1-methyl-1H-1,2,3-triazol-4-yl)-2-methylpyridin-3-yl)oxy)cyclohexanecarboxylic acid]	153
Cn1nnc(-c2cnc(O[C@H]3CCC[C@H](C(=O)O)C3)cn2)c1CNc1nccc(C(C)(C)C)n1 [Example 5, (1S,3S)-3-((5-(5-(((4-(tert-butyl)pyrimidin-2-yl)amino)methyl)-1-methyl-1H-1,2,3-triazol-4-yl)pyrazin-2-yl)oxy)cyclohexane-1-carboxylic acid]	361
CCCc1ccnc(NCc2c(-c3ccc(O[C@H]4CCC[C@H](C(=O)O)C4)c(C)n3)nnn2C)n1 [Example 7]	8
Cc1nc(-c2nnn(C)c2CNc2nccc(C(C)C)n2)ccc1O[C@H]1CCC[C@H](C(=O)O)C1 [Example 8]	10
